Results reported in patent US8668925B2, “Transdermal delivery of hormones without the need of penetration enhancers” (Bayer Intellectual Property GmbH, priority 2003, dated 2014).

Experiments:
[1] = cited from earlier work
[2] = Serum pharmacokinetics of Ethinylestradiol and Gestodene during two patch treatment cycles; parameters: species or system women; conditions: female, human, in vivo, topical or ocular, 0.9 mg, AUC(0-[…]) of ethinyl estradiol (EE), mean
From the text: Arcare MA-24A® is a polyisobutylene based adhesive from Adhesive Research.
The treatment phase includes a period of two menstrual cycles. The first treatment in the first cycle began one day after the volunteers started menstruating in this cycle by application of a patch. A total of three test patches were applied in intervals of 7 days between, such as application at days 1, 8 and 15 of the first cycle—each at different application sites—during each treatment cycle. Each patch was worn for 7 days, then replaced with a new patch to complete a total of 21 days of continuous use. This was followed by a 7-day treatment-free interval before the next treatment period started with a total of three patches applied, each applied with an interval of 7 days. If the patches were lost or became more than 40% detached, a new patch was applied.
The AUC was calculated according to the linear trapezoidal rule.
The sampling points were at the day 18 of the last pre-treatment cycle and days 1, 2, 3, 4, 5, 6, 7, 8, 15, 16, 17, 18, 19, 20, 21 and 22 of cycle 1 as well as days 1 (before application of new patch), 2, 3, 4, 5, 6, 7, 8, 15, 16, 17, 18, 19, 20, 21 and 22 of cycle 2.
After incubation and centrifugation, the resultant precipitate was redissolved with NaOH. The assay has a lower limit of quantification of approx. 250 μg/ml.

Row | SMILES | Maximal plasma levels ([1]; U.S. Pat. No. 5,376,377, ethylene vinyl acrylate adhesive layer, Gestodene and ethinylestradiol) | maximal plasma levels of Gestodene ([1]; WO 92/07590, transdermal compositions with penetration enhancers) | AUC(0-t) ([2]; Cycle 1, Week 1, test patch) [ng·h/mL] | AUC(0-t) ([2]; Cycle 1, Week 3, test patch) [ng·h/mL] | AUC(0-t) ([2]; Cycle 2, Week 1, test patch) [ng·h/mL] | AUC(0-t) ([2]; Cycle 2, Week 3, test patch) [ng·h/mL]
1 | C#C[C@]1(O)C=C[C@H]2[C@@H]3CCC4=CC(=O)CC[C@@H]4[C@H]3CC[C@@]21CC [Gestodene, 13β-Ethyl-17α-ethynyl-17β-hydroxy-4,15-gonadien-3-one] | about 0.8 ng/ml | about 0.9 ng/ml |  |  |  | 
2 | C#C[C@]1(O)CC[C@H]2[C@@H]3CCc4cc(O)ccc4[C@H]3CC[C@@]21C [ethinyl estradiol, Ethinylestradiol] |  |  | 5.3 | 6.1 | 5.1 | 5.8
